From ChEMBL document CHEMBL1932964, “Lead optimisation of pyrazoles as novel FPR1 antagonists” (Bioorg Med Chem Lett, 2012)
Values after ≈ are worked out from the molar mass of the structure shown.

What was measured:
fMet-Leu-Phe receptor [1] = biological target: T1, fMet-Leu-Phe receptor (Homo sapiens, UniProt P21462); test: Antagonist activity at human recombinant FPR1 in expressed in HEK293 cells assessed as inhibition of FMLP-stimulated intracellular calcium mobilisation after 1 hr by FLIPR assay; type: functional, cell-based
T1 sequence (P21462 whole entry): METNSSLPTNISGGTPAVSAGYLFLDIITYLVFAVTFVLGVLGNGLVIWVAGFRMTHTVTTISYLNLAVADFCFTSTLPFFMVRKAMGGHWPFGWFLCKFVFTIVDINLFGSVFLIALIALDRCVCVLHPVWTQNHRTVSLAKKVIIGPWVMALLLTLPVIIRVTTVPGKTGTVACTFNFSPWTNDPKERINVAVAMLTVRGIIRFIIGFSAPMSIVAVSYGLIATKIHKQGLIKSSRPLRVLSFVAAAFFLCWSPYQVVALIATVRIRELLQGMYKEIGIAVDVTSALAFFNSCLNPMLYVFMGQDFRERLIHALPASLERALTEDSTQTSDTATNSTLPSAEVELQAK

[2] = biological target: T2, fMet-Leu-Phe receptor (Homo sapiens) (UniProt P21462); test: Antagonist activity at human recombinant FPR1 in expressed in HEK293 cells assessed as inhibition of FMLP-stimulated intracellular calcium mobilisation at 30 uM after 1 hr by FLIPR assay; type: functional, cell-based
T2 sequence (whole entry): T1 sequence (P21462 whole entry)

[3] = Distribution coefficient, log D of compound; type: physicochemical; conditions: octanol/water
[4] = Intrinsic clearance in human liver microsomes measured after 45 mins post NADPH addition
[5] = Intrinsic clearance in human hepatocytes assessed per 10^6 cells measured after 90 mins
[6] = Intrinsic clearance in Sprague-Dawley rat hepatocytes assessed per 10^6 cells measured after 90 mins
[7] = (§1) Fraction unbound in human plasma; type: ADME, cell-free
[8] = (§2) Fraction unbound in Sprague-Dawley rat plasma; type: ADME, cell-free; conditions: Sprague-Dawley
[9] = Clearance in Sprague-Dawley rat at 2 mg/kg, iv; conditions: in vivo
[10] = Half life in Sprague-Dawley rat at 2 mg/kg, iv; conditions: in vivo
[11] = Volume of distribution at steady state in Sprague-Dawley rat at 2 mg/kg, iv; type: ADME, organism-based; parameters: dose 2 mg/kg, route intravenous; conditions: in vivo, read-out: Vdss
[12] = Oral bioavailability in Sprague-Dawley rat at 2 mg/kg; type: ADME, organism-based; conditions: in vivo
fMet-Leu-Phe receptor [13] = biological target: T1, fMet-Leu-Phe receptor; test: Antagonist activity at FPR1 in human neutrophils assessed as AB/fMLF-stimulated upregulation of CD11b expression preincubated for 30 mins before AB/FMLF challenge measured after 50 mins using FITC staining by flow cytometry; type: functional; conditions: read-out: pA2 (converted)
THP-1 = test: Cytotoxicity against human THP1 cells; type: cell-based
Cytochrome P450 1A2 = biological target: T3, Cytochrome P450 1A2 (Homo sapiens, UniProt P05177); test: Inhibition of CYP1A2; type: ADME
T3 sequence (P05177 whole entry): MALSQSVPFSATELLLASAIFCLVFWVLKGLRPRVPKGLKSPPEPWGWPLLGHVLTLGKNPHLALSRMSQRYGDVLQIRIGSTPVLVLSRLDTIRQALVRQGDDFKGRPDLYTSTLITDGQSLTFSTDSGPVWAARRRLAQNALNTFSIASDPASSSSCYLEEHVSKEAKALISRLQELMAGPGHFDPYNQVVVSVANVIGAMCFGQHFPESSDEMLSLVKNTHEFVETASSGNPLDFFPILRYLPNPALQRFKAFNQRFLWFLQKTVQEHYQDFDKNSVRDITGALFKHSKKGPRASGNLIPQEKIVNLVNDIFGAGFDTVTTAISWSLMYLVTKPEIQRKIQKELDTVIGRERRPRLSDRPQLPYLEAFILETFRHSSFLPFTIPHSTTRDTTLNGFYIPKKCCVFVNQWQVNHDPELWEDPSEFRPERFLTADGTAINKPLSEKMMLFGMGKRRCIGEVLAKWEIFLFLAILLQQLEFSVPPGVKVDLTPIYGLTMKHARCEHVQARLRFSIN

Cytochrome P450 2C9 = Cytochrome P450 2C9 (Homo sapiens, UniProt P11712); test: Inhibition of CYP2C9; type: ADME
Cytochrome P450 2C19 = Cytochrome P450 2C19 (Homo sapiens, UniProt P33261); test: Inhibition of CYP2C19; type: ADME
Cytochrome P450 2D6 = Cytochrome P450 2D6 (Homo sapiens, UniProt P10635); test: Inhibition of CYP2D6; type: ADME
Cytochrome P450 3A4 = Cytochrome P450 3A4 (Homo sapiens, UniProt P08684); test: Inhibition of CYP3A4; type: ADME
[14] = Time dependent inhibition of CYP; type: ADME
Liver = test: Intrinsic clearance in rat liver microsomes assessed as media loss of parent compound per million cells
[15] = Thermodynamic solubility of compound by shake-flask technique; type: physicochemical; conditions: read-out: Therm_solubility
[16] = […] pKa of the compound; type: physicochemical
[17] = Ratio of drug level in blood to plasma in Sprague-Dawley rat; type: ADME
[18] = Plasma clearance in bile duct cannulated Sprague-Dawley rat; type: ADME, organism-based
Plasma [19] = test: as §1; type: ADME, cell-free
Plasma [20] = test: as §2; type: ADME, cell-free
[21] = biological target: T4, Solute carrier organic anion transporter family member 1B1 (Homo sapiens, UniProt Q9Y6L6); test: Inhibition of OATP1B1 transporter
T4 sequence (Q9Y6L6 whole entry): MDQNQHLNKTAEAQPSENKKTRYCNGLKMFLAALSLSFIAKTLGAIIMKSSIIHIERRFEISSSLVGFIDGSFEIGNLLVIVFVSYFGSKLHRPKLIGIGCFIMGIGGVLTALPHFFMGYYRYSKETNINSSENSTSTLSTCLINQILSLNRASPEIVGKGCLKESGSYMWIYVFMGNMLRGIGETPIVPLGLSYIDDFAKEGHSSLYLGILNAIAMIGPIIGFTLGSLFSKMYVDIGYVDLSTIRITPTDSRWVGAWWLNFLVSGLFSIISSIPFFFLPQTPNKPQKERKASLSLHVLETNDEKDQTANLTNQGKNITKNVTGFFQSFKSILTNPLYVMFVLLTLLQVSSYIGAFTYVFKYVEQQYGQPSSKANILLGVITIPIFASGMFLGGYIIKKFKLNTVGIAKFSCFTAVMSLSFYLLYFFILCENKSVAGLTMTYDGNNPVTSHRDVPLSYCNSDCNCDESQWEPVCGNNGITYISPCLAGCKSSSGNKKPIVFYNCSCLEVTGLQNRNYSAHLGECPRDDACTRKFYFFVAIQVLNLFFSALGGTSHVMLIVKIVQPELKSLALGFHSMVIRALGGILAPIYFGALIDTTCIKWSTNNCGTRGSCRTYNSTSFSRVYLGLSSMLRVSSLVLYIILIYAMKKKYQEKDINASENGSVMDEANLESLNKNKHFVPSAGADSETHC

Chain of Cytochrome P450 2C9 (P11712 whole entry): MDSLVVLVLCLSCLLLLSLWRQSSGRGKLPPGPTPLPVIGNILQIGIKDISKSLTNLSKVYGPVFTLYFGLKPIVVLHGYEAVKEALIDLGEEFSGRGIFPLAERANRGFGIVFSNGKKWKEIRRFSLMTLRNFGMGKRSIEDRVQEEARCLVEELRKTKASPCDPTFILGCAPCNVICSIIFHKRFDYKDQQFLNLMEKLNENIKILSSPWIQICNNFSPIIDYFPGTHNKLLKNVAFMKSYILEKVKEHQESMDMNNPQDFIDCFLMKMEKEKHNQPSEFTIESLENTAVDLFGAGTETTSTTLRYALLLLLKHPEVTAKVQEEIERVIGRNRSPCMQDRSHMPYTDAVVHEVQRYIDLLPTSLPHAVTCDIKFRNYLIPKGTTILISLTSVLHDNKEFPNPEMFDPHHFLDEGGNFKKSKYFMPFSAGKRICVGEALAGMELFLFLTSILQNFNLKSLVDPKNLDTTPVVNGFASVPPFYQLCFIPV
Chain of Cytochrome P450 3A4 (P08684 whole entry): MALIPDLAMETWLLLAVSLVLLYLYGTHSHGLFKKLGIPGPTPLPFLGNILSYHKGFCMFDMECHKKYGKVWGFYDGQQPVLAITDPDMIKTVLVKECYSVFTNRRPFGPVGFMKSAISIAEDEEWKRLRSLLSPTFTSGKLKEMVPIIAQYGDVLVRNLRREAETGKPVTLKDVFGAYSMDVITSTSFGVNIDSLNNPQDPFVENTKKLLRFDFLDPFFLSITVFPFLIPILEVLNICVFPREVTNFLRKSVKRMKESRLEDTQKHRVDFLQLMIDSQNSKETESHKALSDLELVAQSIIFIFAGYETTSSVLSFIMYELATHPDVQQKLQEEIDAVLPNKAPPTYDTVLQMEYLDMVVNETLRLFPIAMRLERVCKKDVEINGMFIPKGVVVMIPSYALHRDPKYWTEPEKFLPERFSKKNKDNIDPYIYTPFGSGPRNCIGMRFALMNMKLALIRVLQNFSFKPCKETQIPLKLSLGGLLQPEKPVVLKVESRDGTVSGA
Chain of Cytochrome P450 2C19 (P33261 whole entry): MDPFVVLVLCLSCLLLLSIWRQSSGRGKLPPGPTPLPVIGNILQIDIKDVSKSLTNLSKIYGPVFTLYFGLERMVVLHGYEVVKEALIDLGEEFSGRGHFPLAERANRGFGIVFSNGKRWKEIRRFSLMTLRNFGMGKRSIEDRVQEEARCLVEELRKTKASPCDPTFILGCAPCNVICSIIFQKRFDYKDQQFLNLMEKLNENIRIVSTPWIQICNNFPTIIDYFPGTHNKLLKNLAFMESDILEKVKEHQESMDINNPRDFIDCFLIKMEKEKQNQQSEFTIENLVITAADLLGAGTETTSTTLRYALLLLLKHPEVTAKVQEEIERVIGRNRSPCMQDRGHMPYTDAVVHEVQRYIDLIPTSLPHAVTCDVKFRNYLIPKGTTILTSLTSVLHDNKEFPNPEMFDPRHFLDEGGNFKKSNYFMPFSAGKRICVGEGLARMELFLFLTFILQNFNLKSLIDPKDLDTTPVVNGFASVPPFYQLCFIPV
Chain of Cytochrome P450 2D6 (P10635 whole entry): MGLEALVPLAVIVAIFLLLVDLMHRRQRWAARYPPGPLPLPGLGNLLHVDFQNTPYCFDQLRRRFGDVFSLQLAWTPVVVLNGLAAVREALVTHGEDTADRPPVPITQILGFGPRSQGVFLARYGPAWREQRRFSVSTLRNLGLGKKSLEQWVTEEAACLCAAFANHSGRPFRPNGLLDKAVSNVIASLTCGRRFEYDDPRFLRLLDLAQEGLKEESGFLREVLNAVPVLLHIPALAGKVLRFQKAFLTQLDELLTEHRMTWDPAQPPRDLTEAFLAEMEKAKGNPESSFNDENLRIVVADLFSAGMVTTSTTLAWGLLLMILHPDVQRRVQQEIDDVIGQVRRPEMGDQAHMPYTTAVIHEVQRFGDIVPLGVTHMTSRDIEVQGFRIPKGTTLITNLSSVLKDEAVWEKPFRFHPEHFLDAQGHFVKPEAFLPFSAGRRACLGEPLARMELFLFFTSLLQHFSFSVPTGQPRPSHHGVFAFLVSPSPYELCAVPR

CCC(CC)n1nc(C)c(C(=O)N[C@@H](C)C(C)(C)C)c1NS(=O)(=O)c1ccc(C)cc1
IC50 (fMet-Leu-Phe receptor [1]): 398 nM

Cc1ccc(S(=O)(=O)Nc2c(C(=O)N[C@@H](C)C(C)(C)C)c(C)nn2C2CCN(C)CC2)cc1
inhibition [2]: < 30%

CO[C@H]1CC[C@@H](n2nc(C)c(C(=O)N[C@@H](C)C(C)(C)C)c2NS(=O)(=O)c2ccc(C)cc2)CC1
IC50 (fMet-Leu-Phe receptor [1]): 3.98 nM
logD [3]: 1.3
microsomal CLint at 0.75 h [4]: 8 µL/min/mg
hepatocyte CLint at […] [5]: 3.6 µL/min/1e6 cells
hepatocyte CLint at […] [6]: 3 µL/min/1e6 cells
fraction unbound [7]: 0.073
fraction unbound [8]: 0.1
clearance [9]: 5.5 mL/min/kg
half-life [10]: 168 min
Vd [11]: 1.2 L/kg
bioavailability [12]: 80%
Kb (fMet-Leu-Phe receptor [13]): 20 nM
IC50 (THP-1): > 50100 nM
IC50 (Cytochrome P450 1A2): > 10000 nM
IC50 (Cytochrome P450 2C9): > 10000 nM
IC50 (Cytochrome P450 2C19): > 10000 nM
IC50 (Cytochrome P450 2D6): > 10000 nM
IC50 (Cytochrome P450 3A4): > 10000 nM
pIC50 [14]: < 5

Cc1ccc(S(=O)(=O)Nc2c(C(=O)N[C@@H](C)C(C)(C)C)c(C)nn2C2CCN(CC(F)(F)F)CC2)cc1
IC50 (fMet-Leu-Phe receptor [1]): 3160 nM

CCC(CC)NC(=O)c1c(C)nn(C(C)C)c1NS(=O)(=O)c1ccc(C)cc1
IC50 (fMet-Leu-Phe receptor [1]): 25100 nM

Cc1ccc(S(=O)(=O)Nc2c(C(=O)N[C@@H](C)C(C)(C)C)c(C)nn2C2CCS(=O)(=O)CC2)cc1
IC50 (fMet-Leu-Phe receptor [1]): 10000 nM

COCC(C)n1nc(C)c(C(=O)N[C@@H](C)C(C)(C)C)c1NS(=O)(=O)c1ccc(C)cc1 (some centres not stated)
IC50 (fMet-Leu-Phe receptor [1]): 2510 nM
hepatocyte CLint at […] [6]: < 3 µL/min/1e6 cells

Cc1ccc(S(=O)(=O)Nc2c(C(=O)N[C@@H](C)C(C)(C)C)c(C)nn2C2CCCC2)cc1
IC50 (fMet-Leu-Phe receptor [1]): 79.4 nM
hepatocyte CLint at […] [6]: 8 µL/min/1e6 cells
CLH (Liver): 12 µL/min

Cc1ccc(S(=O)(=O)Nc2c(C(=O)N[C@@H](C)C(C)(C)C)c(C)nn2C(C)(C)C)cc1
IC50 (fMet-Leu-Phe receptor [1]): 1580 nM
hepatocyte CLint at […] [6]: 53 µL/min/1e6 cells

COCCC(C)n1nc(C)c(C(=O)N[C@@H](C)C(C)(C)C)c1NS(=O)(=O)c1ccc(C)cc1 (some centres not stated)
IC50 (fMet-Leu-Phe receptor [1]): 316 nM
hepatocyte CLint at […] [6]: 10 µL/min/1e6 cells

Cc1ccc(S(=O)(=O)Nc2c(C(=O)N[C@@H](C)C(C)(C)C)c(C)nn2CC(F)(F)F)cc1
IC50 (fMet-Leu-Phe receptor [1]): 3160 nM
hepatocyte CLint at […] [6]: 74 µL/min/1e6 cells
CLH (Liver): 18 µL/min

Cc1nn(C2CCOCC2)c(NS(=O)(=O)c2ccc(C3CC3)cc2)c1C(=O)N[C@@H](C)C(C)(C)C
IC50 (fMet-Leu-Phe receptor [1]): 158 nM
logD [3]: 1.2
solubility thermodynamic [15]: > 2800 µM
fraction unbound [7]: 0.075
fraction unbound [8]: 0.111
Vd [11]: 0.5 L/kg
bioavailability [12]: 83%
Kb (fMet-Leu-Phe receptor [13]): 794 nM
IC50 (THP-1): > 50100 nM
IC50 (Cytochrome P450 1A2): > 10000 nM
IC50 (Cytochrome P450 2C9): > 10000 nM
IC50 (Cytochrome P450 2C19): > 10000 nM
IC50 (Cytochrome P450 2D6): > 10000 nM
IC50 (Cytochrome P450 3A4): > 10000 nM
pIC50 [14]: < 5

Cc1nn(-c2ccc(F)cc2)c(NS(=O)(=O)c2ccc(C#N)cc2)c1C(=O)N[C@@H](C)C(C)(C)C
microsomal CLint at 0.75 h [4]: 5 µL/min/mg
hepatocyte CLint at […] [5]: < 3 µL/min/1e6 cells
hepatocyte CLint at […] [6]: < 4 µL/min/1e6 cells
pKa [16]: 3
solubility thermodynamic [15]: > 2010 µM
fraction unbound [7]: 0.08
fraction unbound [8]: 0.043
blood plasma ratio [17]: 0.7
CLH (Liver): 33 µL/min
clearance [9]: 42 mL/min/kg
half-life [10]: 36 min
Vd [11]: 0.23 L/kg
bioavailability [12]: 5%
clearance [18]: 21 mL/min/kg

Cc1ccc(S(=O)(=O)Nc2c(C(=O)N[C@@H](C)C(C)(C)C)c(C)nn2C2CCCCC2)cc1
IC50 (fMet-Leu-Phe receptor [1]): 31.6 nM
hepatocyte CLint at […] [6]: 8 µL/min/1e6 cells
CLH (Liver): 23 µL/min

Cc1ccc(S(=O)(=O)Nc2c(C(=O)N[C@@H](C)C(C)(C)C)c(C)nn2C2CCSCC2)cc1
IC50 (fMet-Leu-Phe receptor [1]): 39.8 nM

Cc1ccc(S(=O)(=O)Nc2c(C(=O)N[C@@H](C)C(C)(C)C)c(C)nn2C2CCOCC2)cc1
IC50 (fMet-Leu-Phe receptor [1]): 316 nM

Cc1ccc(S(=O)(=O)Nc2c(C(=O)N[C@@H](C)C(C)(C)C)c(C)nn2-c2ccccc2)cc1
microsomal CLint at 0.75 h [4]: 40 µL/min/mg
hepatocyte CLint at […] [5]: 7 µL/min/1e6 cells
pKa [16]: 3.9
solubility thermodynamic [15]: 1030 µM (≈ 468 µg/mL)
Fu (Plasma [19]): 4.2%
Fu (Plasma [20]): 1.1%
blood plasma ratio [17]: 0.7
IC50 [21]: 7940 nM
CLH (Liver): 412 µL/min
clearance [9]: 42 mL/min/kg
half-life [10]: 15 min
Vd [11]: 0.45 L/kg
bioavailability [12]: 19%

Cc1ccc(S(=O)(=O)Nc2c(C(=O)N[C@@H](C)C(C)(C)C)c(C)nn2C2CCC2)cc1
IC50 (fMet-Leu-Phe receptor [1]): 200 nM
hepatocyte CLint at […] [6]: 17 µL/min/1e6 cells

Cc1ccc(S(=O)(=O)Nc2c(C(=O)N[C@@H](C)C(C)(C)C)c(C)nn2C(C)C)cc1
IC50 (fMet-Leu-Phe receptor [1]): 1000 nM
hepatocyte CLint at […] [6]: < 6 µL/min/1e6 cells
fraction unbound [8]: 0.04
CLH (Liver): 7.8 µL/min
clearance [9]: 4 mL/min/kg

Cc1ccc(S(=O)(=O)Nc2c(C(=O)N[C@@H](C)C(C)(C)C)c(C)nn2C2CCOC2)cc1 (some centres not stated)
IC50 (fMet-Leu-Phe receptor [1]): 1000 nM

CO[C@H]1CC[C@H](n2nc(C)c(C(=O)N[C@@H](C)C(C)(C)C)c2NS(=O)(=O)c2ccc(C)cc2)CC1
inhibition [2]: < 30%
